According to US20120245137A1 (Zalicus Pharmaceuticals Ltd., priority 2009, published 2012):
Like-named read-outs stand apart in the source and are kept apart here.

Assays:
Assay type in all cases: cell-based
CAv1.2 = CAv1.2 (Homo sapiens, UniProt Q13936); experiment: FLIPR data, CAv1.2 channel blocking (Table 6); conditions: for CAv1.2 IC50 Ratio closed/inact.: ratio closed/inactivated IC50
T-type calcium channel [1] = biological target: T-type calcium channel (Homo sapiens, UniProt O95180); experiment: T-type channel blocking, FLIPR data (Table 6); conditions: for CAv3.2 IC50 Ratio closed/inact.: CAv3.2, ratio closed/inactivated IC50
Source text: (§1) Another method, high-throughput spectrophotometric assay, utilizes loading of the cell lines with a fluorescent dye sensitive to intracellular calcium concentration and subsequent examination of the effects of compounds on the ability of depolarization by potassium chloride or other means to alter intracellular calcium levels.

T-type calcium channel [2] = biological target: T-type calcium channel (Homo sapiens, UniProt O43497); experiment: T-type channel blocking, FLIPR data (Table 6); conditions: CAv3.1
Source text: as §1

Human Cav 2.2 channels = Human Cav 2.2 channels (Homo sapiens, UniProt Q00975); experiment: Fluorescent assay for CaV2.2 channels using potassium depolarization (VIPR/FLIPR); conditions: FLIPR data; for CAv2.2 IC50 Ratio closed/inact.: ratio closed/inactivated IC50
Outline: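 Fluo-4 calcium fluorescence (480/535 nm) was recorded on VIPR or FLIPR after depolarization to 70 mM final potassium. Before this, cells were preincubated 30 min at 25 °C with compound in 4–30 mM potassium, so that state-dependent block could be assessed; the cells were HEK293 coexpressing Cav2.2, α2δ, β and Kir2.3.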

[3] = closed state, read-out: CAv1.2 IC50 Closed
[4] = inactivated state, read-out: CAv1.2 IC50 Inact.
[5] = CAv3.2, closed state, read-out: CAv3.2 IC50 Closed
[6] = CAv3.2, inactivated state, read-out: CAv3.2 IC50 Inact.
[7] = closed state, read-out: CAv2.2 IC50 Closed
[8] = inactivated state, read-out: CAv2.2 IC50 Inact.

Human Cav 2.2 channels, sequence (Q00975 whole entry): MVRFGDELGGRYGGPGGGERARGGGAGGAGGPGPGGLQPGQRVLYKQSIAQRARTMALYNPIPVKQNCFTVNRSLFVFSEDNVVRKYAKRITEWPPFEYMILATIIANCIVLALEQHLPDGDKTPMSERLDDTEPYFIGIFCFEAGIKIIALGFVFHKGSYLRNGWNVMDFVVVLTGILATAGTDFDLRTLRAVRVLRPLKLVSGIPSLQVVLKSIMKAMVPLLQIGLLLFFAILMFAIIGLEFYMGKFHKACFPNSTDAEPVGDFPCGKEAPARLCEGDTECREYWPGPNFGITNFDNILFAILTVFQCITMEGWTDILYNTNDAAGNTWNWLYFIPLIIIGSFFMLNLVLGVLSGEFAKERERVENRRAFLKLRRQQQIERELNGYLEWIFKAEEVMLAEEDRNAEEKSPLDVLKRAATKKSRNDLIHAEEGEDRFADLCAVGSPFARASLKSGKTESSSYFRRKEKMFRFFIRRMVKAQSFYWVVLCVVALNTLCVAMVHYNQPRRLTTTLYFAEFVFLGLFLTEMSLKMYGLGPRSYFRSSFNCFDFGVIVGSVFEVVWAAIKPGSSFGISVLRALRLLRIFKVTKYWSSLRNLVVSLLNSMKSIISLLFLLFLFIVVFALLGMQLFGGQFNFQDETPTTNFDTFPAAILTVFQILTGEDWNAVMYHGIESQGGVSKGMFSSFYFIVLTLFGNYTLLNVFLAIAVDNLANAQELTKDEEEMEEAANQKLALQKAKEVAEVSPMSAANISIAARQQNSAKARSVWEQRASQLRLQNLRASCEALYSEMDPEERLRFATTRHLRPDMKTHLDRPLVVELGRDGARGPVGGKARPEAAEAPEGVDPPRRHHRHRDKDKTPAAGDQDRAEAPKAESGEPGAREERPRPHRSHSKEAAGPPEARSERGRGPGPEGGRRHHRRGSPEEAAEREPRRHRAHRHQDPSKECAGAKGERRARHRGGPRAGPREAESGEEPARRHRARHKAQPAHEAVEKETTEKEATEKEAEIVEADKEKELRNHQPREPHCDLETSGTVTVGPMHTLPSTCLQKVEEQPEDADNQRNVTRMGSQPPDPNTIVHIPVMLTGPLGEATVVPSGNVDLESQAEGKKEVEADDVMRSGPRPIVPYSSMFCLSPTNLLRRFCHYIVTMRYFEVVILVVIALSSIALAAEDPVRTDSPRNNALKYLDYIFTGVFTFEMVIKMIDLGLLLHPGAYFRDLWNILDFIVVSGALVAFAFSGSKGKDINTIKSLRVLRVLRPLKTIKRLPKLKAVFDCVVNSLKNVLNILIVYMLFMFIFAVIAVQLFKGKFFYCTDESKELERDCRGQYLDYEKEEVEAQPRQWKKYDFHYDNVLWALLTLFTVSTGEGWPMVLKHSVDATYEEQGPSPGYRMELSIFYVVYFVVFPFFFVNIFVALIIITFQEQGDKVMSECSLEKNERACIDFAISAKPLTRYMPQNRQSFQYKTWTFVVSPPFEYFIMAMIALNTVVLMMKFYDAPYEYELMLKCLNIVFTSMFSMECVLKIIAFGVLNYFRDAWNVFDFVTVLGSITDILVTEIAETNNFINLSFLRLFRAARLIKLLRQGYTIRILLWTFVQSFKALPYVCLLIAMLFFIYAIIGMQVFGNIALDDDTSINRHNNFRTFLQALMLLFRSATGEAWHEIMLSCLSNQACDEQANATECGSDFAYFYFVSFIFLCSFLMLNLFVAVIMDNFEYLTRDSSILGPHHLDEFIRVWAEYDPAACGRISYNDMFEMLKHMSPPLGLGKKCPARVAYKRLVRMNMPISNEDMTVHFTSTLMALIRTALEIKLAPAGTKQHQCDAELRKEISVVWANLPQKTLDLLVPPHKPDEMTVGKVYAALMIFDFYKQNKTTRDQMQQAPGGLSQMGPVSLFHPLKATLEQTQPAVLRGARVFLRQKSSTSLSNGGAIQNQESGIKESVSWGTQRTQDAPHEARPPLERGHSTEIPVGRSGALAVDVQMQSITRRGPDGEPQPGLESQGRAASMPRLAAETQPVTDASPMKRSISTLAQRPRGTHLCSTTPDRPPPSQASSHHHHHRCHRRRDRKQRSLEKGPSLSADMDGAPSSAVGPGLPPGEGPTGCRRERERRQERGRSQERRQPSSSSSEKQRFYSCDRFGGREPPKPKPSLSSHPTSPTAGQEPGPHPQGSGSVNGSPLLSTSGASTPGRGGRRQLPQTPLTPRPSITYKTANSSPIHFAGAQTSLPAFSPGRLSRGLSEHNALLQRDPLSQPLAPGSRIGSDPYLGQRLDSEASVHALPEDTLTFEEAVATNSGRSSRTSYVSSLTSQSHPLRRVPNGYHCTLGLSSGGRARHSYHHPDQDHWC
Human Cav 2.2 channels, sequence (P54289 25-1103 partner): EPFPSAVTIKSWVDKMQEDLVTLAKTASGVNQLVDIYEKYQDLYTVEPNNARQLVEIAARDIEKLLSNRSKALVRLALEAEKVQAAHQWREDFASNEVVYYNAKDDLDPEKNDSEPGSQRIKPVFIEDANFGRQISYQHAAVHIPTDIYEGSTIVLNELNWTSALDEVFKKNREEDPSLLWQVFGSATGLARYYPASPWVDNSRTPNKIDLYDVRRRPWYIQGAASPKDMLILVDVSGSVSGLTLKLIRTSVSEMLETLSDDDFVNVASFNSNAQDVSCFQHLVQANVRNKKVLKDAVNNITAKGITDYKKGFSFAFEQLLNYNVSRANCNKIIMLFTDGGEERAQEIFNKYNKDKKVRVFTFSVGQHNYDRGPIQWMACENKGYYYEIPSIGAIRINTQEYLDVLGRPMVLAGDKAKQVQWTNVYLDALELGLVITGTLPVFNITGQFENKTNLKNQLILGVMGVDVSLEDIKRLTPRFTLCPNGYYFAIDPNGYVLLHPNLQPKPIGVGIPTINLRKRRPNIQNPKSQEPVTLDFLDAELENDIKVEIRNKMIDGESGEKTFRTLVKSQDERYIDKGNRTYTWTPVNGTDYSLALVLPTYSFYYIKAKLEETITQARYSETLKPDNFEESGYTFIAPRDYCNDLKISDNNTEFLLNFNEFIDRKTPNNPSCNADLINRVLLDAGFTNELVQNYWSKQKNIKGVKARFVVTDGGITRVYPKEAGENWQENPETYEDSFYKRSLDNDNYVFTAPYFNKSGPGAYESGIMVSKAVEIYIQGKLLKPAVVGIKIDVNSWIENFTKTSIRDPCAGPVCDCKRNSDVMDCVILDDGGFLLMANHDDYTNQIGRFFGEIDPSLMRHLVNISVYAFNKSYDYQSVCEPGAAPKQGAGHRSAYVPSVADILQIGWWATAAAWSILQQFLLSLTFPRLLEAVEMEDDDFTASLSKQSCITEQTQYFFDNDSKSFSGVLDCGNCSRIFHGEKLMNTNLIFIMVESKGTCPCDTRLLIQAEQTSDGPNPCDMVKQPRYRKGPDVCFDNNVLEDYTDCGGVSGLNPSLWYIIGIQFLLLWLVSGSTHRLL
Human Cav 2.2 channels, sequence (P54284 whole entry partner): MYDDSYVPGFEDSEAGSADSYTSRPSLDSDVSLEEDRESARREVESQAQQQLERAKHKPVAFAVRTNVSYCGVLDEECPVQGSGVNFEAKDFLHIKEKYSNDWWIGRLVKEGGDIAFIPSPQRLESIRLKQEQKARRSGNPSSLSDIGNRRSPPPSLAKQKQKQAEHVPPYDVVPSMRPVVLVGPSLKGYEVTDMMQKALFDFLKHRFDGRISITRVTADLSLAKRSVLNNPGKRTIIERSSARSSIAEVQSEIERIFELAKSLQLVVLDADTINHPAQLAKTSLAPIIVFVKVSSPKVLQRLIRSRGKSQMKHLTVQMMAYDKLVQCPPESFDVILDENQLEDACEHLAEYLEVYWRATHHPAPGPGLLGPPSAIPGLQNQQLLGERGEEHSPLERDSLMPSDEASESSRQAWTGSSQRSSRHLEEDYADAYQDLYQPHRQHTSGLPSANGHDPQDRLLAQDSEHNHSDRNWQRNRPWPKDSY

Compound	IC50 (CAv1.2; [3])	IC50 (CAv1.2; [4])	CAv1.2 IC50 Ratio closed/inact. (CAv1.2)	IC50 (T-type calcium channel [1]; [5])	IC50 (T-type calcium channel [1]; [6])	CAv3.2 IC50 Ratio closed/inact. (T-type calcium channel [1])	IC50 (T-type calcium channel [2])	IC50 (Human Cav 2.2 channels; [7])	IC50 (Human Cav 2.2 channels; [8])	CAv2.2 IC50 Ratio closed/inact. (Human Cav 2.2 channels)
CC(C)([C@H]1C[C@@H](NS(=O)(=O)c2ccc(C(F)(F)F)cc2)C1)S(=O)(=O)c1cccc(C(F)(F)F)c1 [Compound 624]	≥ 10 µM	5.54 µM	1.8	2.96 µM	2.26 µM	1.3	2.96 µM	10 µM	0.8 µM	12.5
CC(C)([C@H]1C[C@@H](NS(=O)(=O)c2ccc(F)c(Cl)c2)C1)S(=O)(=O)c1cccc(C(F)(F)F)c1 [Compound 625]	≥ 10 µM	6.39 µM	1.6	3.71 µM	3.1 µM	1.2	3.74 µM	10 µM	1.09 µM	9.2
CC(C)([C@H]1C[C@@H](NS(=O)(=O)c2ccc(Cl)c(F)c2)C1)S(=O)(=O)c1cccc(C(F)(F)F)c1 [Compound 626]	9.15 µM	5.4 µM	1.7	3.85 µM	2.58 µM	1.5	3.77 µM	8.45 µM	1.1 µM	7.7
CC(C)([C@H]1C[C@@H](NS(=O)(=O)c2ccc(C(F)(F)F)cc2Cl)C1)S(=O)(=O)c1cccc(C(F)(F)F)c1 [Compound 627]	≥ 10 µM	5.86 µM	1.7	2.2 µM	1.33 µM	1.7	2.38 µM	10 µM	0.88 µM	11.4
CC(C)([C@H]1C[C@@H](NS(=O)(=O)c2ccc(F)c(C(F)(F)F)c2)C1)S(=O)(=O)c1cccc(C(F)(F)F)c1 [Compound 628]	≥ 10 µM	5.32 µM	1.9	3.22 µM	3.26 µM	1	2.18 µM	10 µM	1.22 µM	8.2
CC(C)([C@H]1C[C@@H](NS(=O)(=O)c2ccc(C(F)(F)F)nc2)C1)S(=O)(=O)c1cccc(C(F)(F)F)c1 [Compound 629]	≥ 10 µM	4.66 µM	2.1	3.41 µM	3.38 µM	1	2.97 µM	7.45 µM	0.43 µM	17.3
CC(C)([C@H]1C[C@@H](NS(=O)(=O)c2ccc(OC(F)(F)F)cc2)C1)S(=O)(=O)c1cccc(C(F)(F)F)c1 [Compound 630]	≥ 10 µM	3.11 µM	3.2	3.73 µM	2.16 µM	1.7	2.33 µM	10 µM	0.68 µM	14.7
CC(C)([C@H]1C[C@H](NC(=O)c2cc(C(F)(F)F)n[nH]2)C1)S(=O)(=O)c1cccc(OC(F)(F)F)c1 [Compound 632]	≥ 10 µM	3.3 µM	3	0.57 µM	1.52 µM	0.4	9.41 µM	5.69 µM	0.46 µM	12.4
CC(C)([C@H]1C[C@H](NC(=O)c2ccc(Cl)c(F)c2)C1)S(=O)(=O)c1cccc(OC(F)(F)F)c1 [Compound 633]	5.74 µM	1.18 µM	4.9	0.63 µM	0.57 µM	1.1	2.3 µM	2.06 µM	0.19 µM	10.8
CC(C)([C@H]1C[C@H](NC(=O)c2ccc(F)c(Cl)c2)C1)S(=O)(=O)c1cccc(OC(F)(F)F)c1 [Compound 634]	5.92 µM	0.6 µM	9.9	0.7 µM	0.81 µM	0.9	1.55 µM	2.21 µM	0.22 µM	10
